Consider 26 compounds from US7851220B2, “Diacylhydrazine ligands for modulating the expression of exogenous genes in mammalian systems via an ecdysone receptor complex” (priority 2003, dated 2010).

The target in this experiment is T1, GAL4 DBD (1-147)-CfEcR(DEF)/VP16AD-βRXREF-LmUSPEF (Choristoneura fumiferana, UniProt O77240).
T1 construct: The wild-type D, E, and F domains from spruce budworm Choristoneura fumiferana EcR (“CfEcR-DEF”)
Briefly: 27-63 Assay (luciferase reporter gene assay in stably transfected CHO cell clone). In kind it is cell-based. Particulars: for relative Max F1 27-63 Assay: maximum fold induction at any concentration relative to maximum fold induction of GS-E ligand. On the procedure:
Stably transfected cells were selected by Zeocin resistance. Individually isolated CHO cell clones were transiently transfected with a GAL4 RE-luciferase reporter (pFR Luc). 27-63 clone was selected using Hygromycin.
Cells were trypsinized and diluted to a concentration of 2.5×10^4 cells mL. 100 μL of cell suspension was placed in each well of a 96 well plate and incubated at 37° C. under 5% CO2 for 24 h. Ligand stock solutions were prepared in DMSO and diluted 300 fold for all treatments.
Luciferase reporter gene expression was measured 48 h after cell treatment using Bright-Glo™ Luciferase Assay System from Promega (E2650). Luminescence was detected at room temperature using a Dynex MLX microtiter plate luminometer. EC50s were calculated from dose response data using a three-parameter logistic model.
Each assay was conducted in two separate wells, and the two values were averaged.

[1] abbreviates: CHO 27-63 clone, luciferase, 48 h.

`Cc1cc(C)cc(C(=O)N(NC(=O)c2ccc3c(c2C)OC(CCN)CO3)C(C)(C)C)c1` (stereo not shown) [RG-115809, 3,5-dimethyl-benzoic acid N′-[3-(2-amino-ethyl)-5-methyl-2,3-dihydro-benzo[1,4]dioxine-6-carbonyl]-N-tert-butyl-hydrazide] displayed an EC50 of 3250 nM. In addition, the “relative Max F1 27-63 Assay” value under setting [1] was 1.09.

Regarding `CCCCCCC(N(NC(=O)c1cccc(OC)c1C)C(=O)c1cc(OC)c(C)c(OC)c1)C(C)(C)C` (stereo not shown) [RG-115854], it took 200 nM to reach a half-maximal effect (EC50). In addition, the “relative Max F1 27-63 Assay” value under setting [1] is 0.917.

The compound `Cc1cc(C)cc(C(=O)N(NC(=O)c2ccc3c(c2C)OC(CF)CO3)C(C)(C)C)c1` (stereo not shown) [RG-115815, 3,5-dimethyl-benzoic acid N-tert-butyl-N′-(3-fluoromethyl-5-methyl-2,3-dihydro-benzo[1,4]dioxine-6-carbonyl)-hydrazide] returned an EC50 of 300 nM. For the same compound, under setting [1], the “relative Max F1 27-63 Assay” value was determined as 0.738.

The compound `Cc1cc(C)cc(C(=O)N(NC(=O)c2ccc3c(c2C)OC(C(=O)Oc2c(F)c(F)c(F)c(F)c2F)CO3)C(C)(C)C)c1` (stereo not shown) [RG-115810, 7-[N′-tert-butyl-N′-(3,5-dimethyl-benzoyl)-hydrazinocarbonyl]-8-methyl-2,3-dihydro-benzo[1,4]dioxine-2-carboxylic acid pentafluorophenyl ester] yielded an EC50 of approximately 20000 nM. Also, the “relative Max F1 27-63 Assay” value under setting [1] stood at 1.23.

In turn, `Cc1cc(C)cc(C(=O)N(NC(=O)c2ccc3c(c2C)O[C@@H](CO[Si](C)(C)C(C)(C)C)CO3)C(C)(C)C)c1` [RG-115790, 3,5-dimethylbenzoic acid N-tert-butyl-N′-[3-(tert-butyldimethylsilytoxymethyl)-5-methyl-2,3-dihydrobenzo[1,4]dioxine-6-carbonyl]-hydrazide] registered an EC50 of more than 33000 nM. Besides, under setting [1], the “relative Max F1 27-63 Assay” value was 0.0.

`CCCCCCC(N(NC(=O)c1ccc(CC)cc1)C(=O)c1cc(C)cc(C)c1)C(C)(C)C` (stereo not shown) [RG-115843]: the EC50 was 850 nM. The “relative Max F1 27-63 Assay” value under setting [1] is listed as 0.73.

`CCCCCCC(N(NC(=O)c1ccc(CC)cc1)C(=O)c1cccnc1OC)C(C)(C)C` (stereo not shown) [RG-115845, 2-methoxy-nicotinic acid N-(1-tert-butyl-heptyl)-N′-(4-ethyl-benzoyl)-hydrazide]: the EC50 was 4470 nM. Moreover, the “relative Max F1 27-63 Assay” value under setting [1] is recorded as 0.52.

`Cc1cc(C)cc(C(=O)N(NC(=O)c2ccc3c(c2C)OC(C=NO)CO3)C(C)(C)C)c1` (stereo not shown) [RG-115814, 3,5-dimethyl-benzoic acid N-tert-butyl-N′-[3-(hydroxyimino-methyl)-5-methyl-2,3-dihydro-benzo[1,4]dioxine-6-carbonyl]-hydrazide] yielded an EC50 of 320 nM. Further, the “relative Max F1 27-63 Assay” value under setting [1] is on record as 1.0.

Regarding `C=CCC(C)(C)C(CCCC)N(NC(=O)c1cccc(OC)c1C)C(=O)c1cc(C)cc(C)c1` (stereo not shown) [RG-115878, 3,5-dimethyl-benzoic acid N-(1-butyl-2,2-dimethyl-pent-4-enyl)-N′-(3-methoxy-2-methyl-benzoyl)-hydrazide], the EC50 stood at 100 nM. In addition, the “relative Max F1 27-63 Assay” value under setting [1] worked out at 1.05.

The compound `Cc1cc(C)cc(C(=O)N(NC(=O)c2ccc3c(c2C)O[C@@H](C=NNC(N)=O)CO3)C(C)(C)C)c1` [RG-115807, 3,5-dimethyl-benzoic acid N-tert-butyl-N′-(3-formylsemicarbazide-5-methyl-2,3-dihydro-benzo[1,4]dioxine-6-carbonyl)-hydrazide] displayed an EC50 of 3340 nM. The “relative Max F1 27-63 Assay” value under setting [1] is listed as 0.80.

`CCc1c(OC)cccc1C(=O)NN(C(=O)c1cc(C)cc(C)c1)C(C)(C)C` [GS ™-E ligand, 3,5-Dimethyl-benzoic acid N-tert-butyl-N′-(2-ethyl-3-methoxy-benzoyl)-hydrazide, reference compound] showed an EC50 of 288 nM.

In turn, `CCCCCCC(N(NC(=O)c1cccc(OC)c1C)C(=O)c1cc(C)cc(C)c1)C(C)(C)C` (stereo not shown) [RG-115853, 3,5-dimethyl-benzoic acid N-(1-tert-butyl-heptyl)-N′-(3-methoxy-2-methyl-benzoyl)-hydrazide] displayed an EC50 of 100 nM. Also, the “relative Max F1 27-63 Assay” value under setting [1] worked out at 0.898.

In turn, `COc1cccc(C(=O)NN(C(=O)c2cc(C)cc(C)c2)C(/C=C(\C)C(C)(C)C)C(C)(C)C)c1C` (stereo not shown) [RG-115855, 3-methoxy-2-methyl-benzoic acid N′-(1-tert-butyl-3,4,4-trimethyl-pent-2-enyl)-N′-(3,5-dimethyl-benzoyl)-hydrazide] had an EC50 of 26.7 nM. For the same compound, the “relative Max F1 27-63 Assay” value under setting [1] is on record as 1.16.

In turn, `CSCC1COc2ccc(C(=O)NN(C(=O)c3cc(C)cc(C)c3)C(C)(C)C)c(C)c2O1` (stereo not shown) [RG-115817, 3,5-dimethyl-benzoic acid N-tert-butyl-N′-(5-methyl-3-methylsulfanylmethyl-2,3-dihydro-benzo[1,4]dioxine-6-carbonyl)-hydrazide] showed an EC50 of 2900 nM. The “relative Max F1 27-63 Assay” value under setting [1] is 0.95.

Turning to `CCCCCCC(N(NC(=O)c1ccc(CC)cc1)C(=O)c1cc(OC)c(C)c(OC)c1)C(C)(C)C` (stereo not shown) [RG-115844], a half-maximal response (EC50) required 1230 nM. Under setting [1], the “relative Max F1 27-63 Assay” value was determined as 0.352.

`Cc1cc(C)cc(C(=O)N(NC(=O)c2ccc3c(c2C)OC(CO)CO3)C(C)(C)C)c1` (stereo not shown) [RG-115789, 3,5-dimethylbenzoic acid N-tert-butyl-N′-(3-hydroxymethyl-5-methyl-2,3-dihydrobenzo[1,4]dioxine-6-carbonyl)-hydrazide] gave an EC50 of 1850 nM. The “relative Max F1 27-63 Assay” value under setting [1] was 0.81.

For the compound `COc1cccc(C(=O)NN(C(=O)c2cc(C)cc(C)c2)/C(=C/C#N)C(C)(C)C)c1C` [RG-115860, 3-methoxy-2-methyl-benzoic acid N′-(1-tert-butyl-2-cyano-vinyl)-N′-(3,5-dimethylbenzoyl) hydrazide], where the note is “at 33 μM, CHO 27-63 clone, luciferase, 48 h”, the “Avg F1 27-63 Assay” value is listed as “Avg F1 = 2307 at 33 μM”.

`Cc1cc(C)cc(C(=O)N(NC(=O)c2ccc3c(c2C)O[C@@H](CS(C)(=O)=O)CO3)C(C)(C)C)c1` [RG-115818, 3,5-Dimethyl-benzoic acid N-tert-butyl-N′-(3-methanesulfonyl-methyl-5-methyl-2,3-dihydro-benzo[1,4]dioxine-6-carbonyl)-hydrazide] displayed an EC50 of 5260 nM.

Compound `COC(=O)[C@H]1COc2ccc(C(=O)NN(C(=O)c3cc(C)cc(C)c3)C(C)(C)C)c(C)c2O1` [RG-115806] yielded an EC50 of approximately 33000 nM. The “relative Max F1 27-63 Assay” value under setting [1] is reported as 0.25.

Compound `Cc1cc(C)cc(C(=O)N(NC(=O)c2ccc3c(c2C)OC(COC(=O)Nc2ccccc2)CO3)C(C)(C)C)c1` (stereo not shown) [RG-115808, phenyl-carbamic acid 7-[N′-tert-butyl-N′-(3,5-dimethyl-benzoyl)-hydrazinocarbonyl]-8-methyl-2,3-dihydro-benzo[1,4]dioxin-2-ylmethyl ester] displayed an EC50 of 1120 nM. The “relative Max F1 27-63 Assay” value under setting [1] came to 2.37.

As for `Cc1cc(C)cc(C(=O)N(NC(=O)c2ccc3c(c2C)OC(CC#N)CO3)C(C)(C)C)c1` (stereo not shown) [RG-115816, 3,5-Dimethyl-benzoic acid N-tert-butyl-N′-(3-cyanomethyl-5-methyl-2,3-dihydro-benzo[1,4]dioxine-6-carbonyl)-hydrazide], the EC50 was determined as 4220 nM. In addition, under setting [1], the “relative Max F1 27-63 Assay” value is recorded as 0.85.

`Cc1ccc(S(=O)(=O)OCC2COc3ccc(C(=O)NN(C(=O)c4cc(C)cc(C)c4)C(C)(C)C)c(C)c3O2)cc1` (stereo not shown) [RG-115813, toluene-4-sulfonic acid 7-[N′-tert-butyl-N′-(3,5-dimethyl-benzoyl)-hydrazinocarbonyl]-8-methyl-2,3-dihydro-benzo[1,4]dioxin-2-ylmethyl ester] returned an EC50 of more than 33000 nM. The “relative Max F1 27-63 Assay” value under setting [1] came to 0.01.

For `CNC(=O)C1COc2ccc(C(=O)NN(C(=O)c3cc(C)cc(C)c3)C(C)(C)C)c(C)c2O1` (stereo not shown) [RG-115811, 7-[N′-tert-butyl-N′-(3,5-dimethyl-benzoyl)-hydrazinocarbonyl]-8-methyl-2,3-dihydro-benzo[1,4]dioxine-2-carboxylic acid methylamide], the EC50 is more than 33000 nM. The “relative Max F1 27-63 Assay” value under setting [1] is on record as 0.24.

The compound `Cc1cc(C)cc(C(=O)N(NC(=O)c2ccc3c(c2C)OC(C=O)CO3)C(C)(C)C)c1` (stereo not shown) [RG-115812, 3,5-dimethyl-benzoic acid N-tert-butyl-N′-(3-formyl-5-methyl-2,3-dihydro-benzo[1,4]dioxine-6-carbonyl)-hydrazide] registered an EC50 of 2680 nM. Further, the “relative Max F1 27-63 Assay” value under setting [1] is listed as 0.86.

In the case of `Cc1cc(C)cc(C(=O)N(NC(=O)c2ccc3c(c2C)OC(C(=O)O)CO3)C(C)(C)C)c1` (stereo not shown) [RG-115805, 7-[N′-tert-butyl-N′-(3,5-dimethyl-benzoyl)-hydrazinocarbonyl]-8-methyl-2,3-dihydro-benzo[1,4]dioxine-2-carboxylic acid], the EC50 was more than 33000 nM. For the same compound, the “relative Max F1 27-63 Assay” value under setting [1] was determined as 0.01.

The compound `CCCCC(N(NC(=O)c1cccc(OC)c1C)C(=O)c1cc(C)cc(C)c1)C(C)(C)CCC` (stereo not shown) [RG-115877, 3,5-Dimethyl-benzoic acid N-(1-butyl-2,2-dimethyl-pentyl)-N′-(3-methoxy-2-methyl-benzoyl)-hydrazide] came in with an EC50 of 2250 nM. For the same compound, under setting [1], the “relative Max F1 27-63 Assay” value was determined as 1.48.
